How the values were obtained:
[1] = tested on: Tyrosine-protein kinase ABL1 (Homo sapiens), P00519 [E255K]; conditions: Compound concentration 100.0 nM
[2] = target: RAC-beta serine/threonine-protein kinase (Homo sapiens) (UniProt P31751); conditions: Compound concentration 100.0 nM
[3] = target: T1, Aurora kinase A (Homo sapiens) (UniProt O14965); conditions: Compound concentration 100.0 nM
T1 sequence (whole entry): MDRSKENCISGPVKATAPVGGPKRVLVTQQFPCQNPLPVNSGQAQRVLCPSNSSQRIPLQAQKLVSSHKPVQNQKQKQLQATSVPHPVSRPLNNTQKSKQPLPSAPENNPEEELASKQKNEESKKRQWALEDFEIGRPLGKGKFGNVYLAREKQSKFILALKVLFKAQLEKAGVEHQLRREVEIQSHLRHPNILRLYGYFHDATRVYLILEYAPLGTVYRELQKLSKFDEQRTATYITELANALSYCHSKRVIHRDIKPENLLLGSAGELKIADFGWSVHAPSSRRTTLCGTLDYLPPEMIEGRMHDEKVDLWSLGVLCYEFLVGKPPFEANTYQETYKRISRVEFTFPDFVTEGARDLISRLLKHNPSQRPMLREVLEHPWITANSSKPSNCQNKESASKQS

[4] = target: Cyclin-dependent kinase 4 (Homo sapiens) (UniProt P11802); conditions: Compound concentration 100.0 nM
[5] = target: Dual specificity protein kinase CLK3 (Homo sapiens) (UniProt P49761); conditions: Compound concentration 100.0 nM
[6] = target: Mitogen-activated protein kinase kinase kinase 12 (Homo sapiens) (UniProt Q12852); conditions: Compound concentration 100.0 nM
[7] = target: Dual specificity tyrosine-phosphorylation-regulated kinase 2 (Homo sapiens) (UniProt Q92630); conditions: Compound concentration 100.0 nM
[8] = target: Ephrin type-A receptor 5 (Homo sapiens) (UniProt P54756); conditions: Compound concentration 100.0 nM
[9] = target: Ephrin type-B receptor 3 (Homo sapiens) (UniProt P54753); conditions: Compound concentration 100.0 nM
[10] = target: Vascular endothelial growth factor receptor 1 (Homo sapiens) (UniProt P17948); conditions: Compound concentration 100.0 nM
[11] = target: Serine/threonine-protein kinase ICK (Homo sapiens) (UniProt Q9UPZ9); conditions: Compound concentration 100.0 nM
[12] = target: Tyrosine-protein kinase JAK3 (Homo sapiens) (UniProt P52333); conditions: Compound concentration 100.0 nM
[13] = target: Mitogen-activated protein kinase 10 (Homo sapiens) (UniProt P53779); conditions: Compound concentration 100.0 nM
[14] = target: Mitogen-activated protein kinase kinase kinase 15 (Homo sapiens) (UniProt Q6ZN16); conditions: Compound concentration 100.0 nM
[15] = target: Mitogen-activated protein kinase kinase kinase 3 (Homo sapiens) (UniProt Q99759); conditions: Compound concentration 100.0 nM
[16] = target: Microtubule-associated serine/threonine-protein kinase 1 (Homo sapiens) (UniProt Q9Y2H9); conditions: Compound concentration 100.0 nM
[17] = target: Tyrosine-protein kinase Mer (Homo sapiens) (UniProt Q12866); conditions: Compound concentration 100.0 nM
[18] = target: Myosin light chain kinase 2, skeletal/cardiac muscle (Homo sapiens) (UniProt Q9H1R3); conditions: Compound concentration 100.0 nM
[19] = target: T2, Serine/threonine-protein kinase Nek2 (Homo sapiens) (UniProt P51955); conditions: Compound concentration 100.0 nM
T2 sequence (whole entry): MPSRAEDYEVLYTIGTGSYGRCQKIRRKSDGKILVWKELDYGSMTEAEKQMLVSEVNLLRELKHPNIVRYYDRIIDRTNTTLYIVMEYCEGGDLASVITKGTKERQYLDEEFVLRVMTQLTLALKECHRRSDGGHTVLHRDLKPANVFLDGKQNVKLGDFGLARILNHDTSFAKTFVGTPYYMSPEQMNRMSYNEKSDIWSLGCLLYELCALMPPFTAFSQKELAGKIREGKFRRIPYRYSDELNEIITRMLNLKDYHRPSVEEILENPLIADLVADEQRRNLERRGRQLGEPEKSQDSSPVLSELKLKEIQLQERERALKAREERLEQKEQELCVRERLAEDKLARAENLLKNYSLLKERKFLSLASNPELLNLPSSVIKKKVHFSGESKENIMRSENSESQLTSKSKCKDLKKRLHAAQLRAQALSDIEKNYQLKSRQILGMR

[20] = target: Cyclin-dependent kinase 16 (Homo sapiens) (UniProt Q00536); conditions: Compound concentration 100.0 nM
[21] = target: Cyclin-dependent kinase 2 homolog (Plasmodium falciparum (isolate 3D7)) (UniProt P61075); conditions: Compound concentration 100.0 nM
[22] = target: T3, Protein kinase C iota type (Homo sapiens) (UniProt P41743); conditions: Compound concentration 100.0 nM
T3 sequence (whole entry): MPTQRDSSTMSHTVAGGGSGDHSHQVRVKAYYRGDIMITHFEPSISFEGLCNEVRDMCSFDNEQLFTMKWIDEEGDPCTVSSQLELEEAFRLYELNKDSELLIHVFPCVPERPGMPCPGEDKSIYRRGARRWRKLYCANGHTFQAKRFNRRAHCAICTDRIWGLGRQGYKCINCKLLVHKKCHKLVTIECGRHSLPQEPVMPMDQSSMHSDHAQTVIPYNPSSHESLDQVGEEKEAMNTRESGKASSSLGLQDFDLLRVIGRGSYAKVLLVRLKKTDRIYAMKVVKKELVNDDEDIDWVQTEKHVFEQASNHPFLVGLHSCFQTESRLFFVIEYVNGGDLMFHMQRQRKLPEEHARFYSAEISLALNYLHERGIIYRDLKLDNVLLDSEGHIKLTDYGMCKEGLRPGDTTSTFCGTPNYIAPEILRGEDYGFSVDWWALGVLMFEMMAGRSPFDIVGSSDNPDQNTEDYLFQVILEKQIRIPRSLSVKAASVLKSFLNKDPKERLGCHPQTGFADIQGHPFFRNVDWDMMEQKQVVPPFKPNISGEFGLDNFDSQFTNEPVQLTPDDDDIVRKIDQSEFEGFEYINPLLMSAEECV

[23] = tested on: Proto-oncogene tyrosine-protein kinase receptor Ret (Homo sapiens), P07949 [M918T]; conditions: Compound concentration 100.0 nM
[24] = target: Ribosomal protein S6 kinase alpha-6 (Homo sapiens) (UniProt Q9UK32); conditions: Compound concentration 100.0 nM
[25] = target: Serine/threonine-protein kinase WNK2 (Homo sapiens) (UniProt Q9Y3S1); conditions: Compound concentration 100.0 nM
[26] = target: 5-hydroxytryptamine receptor 2C (Homo sapiens) (UniProt P28335); conditions: Compound concentration 10.0 uM

Sequence of Ephrin type-B receptor 3 (Homo sapiens) (P54753 whole entry): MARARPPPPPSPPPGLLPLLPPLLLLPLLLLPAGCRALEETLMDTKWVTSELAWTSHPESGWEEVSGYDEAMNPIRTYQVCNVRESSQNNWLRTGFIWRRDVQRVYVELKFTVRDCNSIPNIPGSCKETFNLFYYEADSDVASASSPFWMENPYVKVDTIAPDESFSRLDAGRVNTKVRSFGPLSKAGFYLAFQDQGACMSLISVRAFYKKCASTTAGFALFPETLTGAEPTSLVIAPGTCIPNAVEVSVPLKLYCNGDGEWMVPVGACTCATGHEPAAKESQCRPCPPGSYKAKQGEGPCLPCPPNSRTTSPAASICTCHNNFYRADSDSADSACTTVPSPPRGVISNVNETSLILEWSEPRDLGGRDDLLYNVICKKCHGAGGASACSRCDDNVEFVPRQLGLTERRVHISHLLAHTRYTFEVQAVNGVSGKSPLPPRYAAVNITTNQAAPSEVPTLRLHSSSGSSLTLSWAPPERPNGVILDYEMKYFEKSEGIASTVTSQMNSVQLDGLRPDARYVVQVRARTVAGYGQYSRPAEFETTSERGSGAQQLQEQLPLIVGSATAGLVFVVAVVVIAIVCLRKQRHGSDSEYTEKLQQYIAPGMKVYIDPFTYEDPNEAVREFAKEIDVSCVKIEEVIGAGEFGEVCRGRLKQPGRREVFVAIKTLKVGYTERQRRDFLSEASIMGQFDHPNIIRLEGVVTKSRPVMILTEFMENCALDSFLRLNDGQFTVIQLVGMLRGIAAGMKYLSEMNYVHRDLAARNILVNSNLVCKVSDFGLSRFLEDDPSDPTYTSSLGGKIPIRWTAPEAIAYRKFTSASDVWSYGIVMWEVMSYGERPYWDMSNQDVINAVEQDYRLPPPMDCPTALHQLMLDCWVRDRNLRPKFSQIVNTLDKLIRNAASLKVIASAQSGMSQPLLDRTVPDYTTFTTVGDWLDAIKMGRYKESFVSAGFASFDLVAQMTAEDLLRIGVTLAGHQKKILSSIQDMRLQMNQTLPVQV
Sequence of Tyrosine-protein kinase JAK3 (Homo sapiens) (P52333 whole entry): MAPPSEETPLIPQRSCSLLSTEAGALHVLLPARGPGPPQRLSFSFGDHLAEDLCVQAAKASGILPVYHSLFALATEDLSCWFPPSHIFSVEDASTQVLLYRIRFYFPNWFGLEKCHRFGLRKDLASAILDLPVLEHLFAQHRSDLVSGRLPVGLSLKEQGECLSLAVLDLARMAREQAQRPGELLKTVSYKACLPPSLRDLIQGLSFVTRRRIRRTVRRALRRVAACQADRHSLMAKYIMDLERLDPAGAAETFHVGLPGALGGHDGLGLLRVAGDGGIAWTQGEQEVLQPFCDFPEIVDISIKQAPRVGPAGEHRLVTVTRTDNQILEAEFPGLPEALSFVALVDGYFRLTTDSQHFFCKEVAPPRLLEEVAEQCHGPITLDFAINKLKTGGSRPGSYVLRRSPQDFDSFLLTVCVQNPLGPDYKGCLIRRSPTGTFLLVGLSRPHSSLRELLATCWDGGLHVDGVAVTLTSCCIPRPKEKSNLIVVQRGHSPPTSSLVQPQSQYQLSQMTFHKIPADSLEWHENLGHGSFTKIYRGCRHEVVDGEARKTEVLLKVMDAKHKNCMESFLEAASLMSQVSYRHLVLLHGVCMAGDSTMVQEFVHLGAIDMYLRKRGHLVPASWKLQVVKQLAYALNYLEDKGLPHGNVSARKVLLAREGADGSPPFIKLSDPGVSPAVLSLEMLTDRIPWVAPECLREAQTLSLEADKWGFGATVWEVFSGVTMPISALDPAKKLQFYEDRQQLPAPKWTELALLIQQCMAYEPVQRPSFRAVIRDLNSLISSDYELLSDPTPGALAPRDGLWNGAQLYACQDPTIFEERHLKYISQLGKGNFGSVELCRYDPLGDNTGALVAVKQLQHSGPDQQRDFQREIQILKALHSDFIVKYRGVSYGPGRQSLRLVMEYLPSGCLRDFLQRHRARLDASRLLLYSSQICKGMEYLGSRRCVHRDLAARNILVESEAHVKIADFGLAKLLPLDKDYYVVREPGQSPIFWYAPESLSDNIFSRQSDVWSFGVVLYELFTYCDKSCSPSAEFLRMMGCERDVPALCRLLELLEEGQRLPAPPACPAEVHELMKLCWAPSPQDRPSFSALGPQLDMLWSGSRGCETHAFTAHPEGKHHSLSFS
Sequence of Cyclin-dependent kinase 2 homolog (Plasmodium falciparum (isolate 3D7)) (P61075 whole entry): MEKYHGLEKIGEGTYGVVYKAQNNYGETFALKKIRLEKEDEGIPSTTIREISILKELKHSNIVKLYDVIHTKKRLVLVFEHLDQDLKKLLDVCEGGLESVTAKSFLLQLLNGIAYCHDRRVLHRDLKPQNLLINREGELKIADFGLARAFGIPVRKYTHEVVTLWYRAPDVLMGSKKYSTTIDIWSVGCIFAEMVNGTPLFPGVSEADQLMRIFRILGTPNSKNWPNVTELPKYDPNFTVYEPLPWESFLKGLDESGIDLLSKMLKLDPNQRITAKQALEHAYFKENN
Sequence of Cyclin-dependent kinase 16 (Homo sapiens) (Q00536 whole entry): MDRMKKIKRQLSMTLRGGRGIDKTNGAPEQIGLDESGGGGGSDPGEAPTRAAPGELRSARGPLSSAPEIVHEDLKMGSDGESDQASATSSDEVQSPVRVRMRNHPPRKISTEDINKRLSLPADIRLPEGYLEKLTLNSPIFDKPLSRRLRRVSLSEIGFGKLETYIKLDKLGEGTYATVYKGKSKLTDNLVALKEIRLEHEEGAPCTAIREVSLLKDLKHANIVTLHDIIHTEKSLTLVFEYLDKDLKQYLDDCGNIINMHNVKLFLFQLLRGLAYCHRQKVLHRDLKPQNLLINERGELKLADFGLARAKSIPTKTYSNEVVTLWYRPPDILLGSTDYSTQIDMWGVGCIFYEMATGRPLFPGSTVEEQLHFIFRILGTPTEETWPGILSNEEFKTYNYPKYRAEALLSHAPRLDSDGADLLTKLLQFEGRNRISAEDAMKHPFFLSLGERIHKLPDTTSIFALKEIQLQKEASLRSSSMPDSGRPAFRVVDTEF
Sequence of Dual specificity tyrosine-phosphorylation-regulated kinase 2 (Homo sapiens) (Q92630 whole entry): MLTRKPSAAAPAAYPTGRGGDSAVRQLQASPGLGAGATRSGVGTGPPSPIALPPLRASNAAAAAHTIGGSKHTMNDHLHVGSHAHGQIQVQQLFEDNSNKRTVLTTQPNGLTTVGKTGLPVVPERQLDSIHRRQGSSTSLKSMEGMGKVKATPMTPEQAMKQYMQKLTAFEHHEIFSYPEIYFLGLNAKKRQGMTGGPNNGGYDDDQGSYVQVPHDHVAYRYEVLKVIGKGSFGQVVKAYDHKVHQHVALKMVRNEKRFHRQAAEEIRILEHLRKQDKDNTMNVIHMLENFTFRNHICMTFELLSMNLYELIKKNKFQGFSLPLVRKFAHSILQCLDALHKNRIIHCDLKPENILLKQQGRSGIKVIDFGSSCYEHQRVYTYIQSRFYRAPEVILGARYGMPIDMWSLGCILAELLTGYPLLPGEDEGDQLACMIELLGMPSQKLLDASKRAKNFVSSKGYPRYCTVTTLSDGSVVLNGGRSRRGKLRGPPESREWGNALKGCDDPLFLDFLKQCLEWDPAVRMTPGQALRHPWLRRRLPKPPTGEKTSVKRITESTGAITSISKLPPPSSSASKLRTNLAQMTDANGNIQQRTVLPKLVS
Sequence of Microtubule-associated serine/threonine-protein kinase 1 (Homo sapiens) (Q9Y2H9 whole entry, looked up): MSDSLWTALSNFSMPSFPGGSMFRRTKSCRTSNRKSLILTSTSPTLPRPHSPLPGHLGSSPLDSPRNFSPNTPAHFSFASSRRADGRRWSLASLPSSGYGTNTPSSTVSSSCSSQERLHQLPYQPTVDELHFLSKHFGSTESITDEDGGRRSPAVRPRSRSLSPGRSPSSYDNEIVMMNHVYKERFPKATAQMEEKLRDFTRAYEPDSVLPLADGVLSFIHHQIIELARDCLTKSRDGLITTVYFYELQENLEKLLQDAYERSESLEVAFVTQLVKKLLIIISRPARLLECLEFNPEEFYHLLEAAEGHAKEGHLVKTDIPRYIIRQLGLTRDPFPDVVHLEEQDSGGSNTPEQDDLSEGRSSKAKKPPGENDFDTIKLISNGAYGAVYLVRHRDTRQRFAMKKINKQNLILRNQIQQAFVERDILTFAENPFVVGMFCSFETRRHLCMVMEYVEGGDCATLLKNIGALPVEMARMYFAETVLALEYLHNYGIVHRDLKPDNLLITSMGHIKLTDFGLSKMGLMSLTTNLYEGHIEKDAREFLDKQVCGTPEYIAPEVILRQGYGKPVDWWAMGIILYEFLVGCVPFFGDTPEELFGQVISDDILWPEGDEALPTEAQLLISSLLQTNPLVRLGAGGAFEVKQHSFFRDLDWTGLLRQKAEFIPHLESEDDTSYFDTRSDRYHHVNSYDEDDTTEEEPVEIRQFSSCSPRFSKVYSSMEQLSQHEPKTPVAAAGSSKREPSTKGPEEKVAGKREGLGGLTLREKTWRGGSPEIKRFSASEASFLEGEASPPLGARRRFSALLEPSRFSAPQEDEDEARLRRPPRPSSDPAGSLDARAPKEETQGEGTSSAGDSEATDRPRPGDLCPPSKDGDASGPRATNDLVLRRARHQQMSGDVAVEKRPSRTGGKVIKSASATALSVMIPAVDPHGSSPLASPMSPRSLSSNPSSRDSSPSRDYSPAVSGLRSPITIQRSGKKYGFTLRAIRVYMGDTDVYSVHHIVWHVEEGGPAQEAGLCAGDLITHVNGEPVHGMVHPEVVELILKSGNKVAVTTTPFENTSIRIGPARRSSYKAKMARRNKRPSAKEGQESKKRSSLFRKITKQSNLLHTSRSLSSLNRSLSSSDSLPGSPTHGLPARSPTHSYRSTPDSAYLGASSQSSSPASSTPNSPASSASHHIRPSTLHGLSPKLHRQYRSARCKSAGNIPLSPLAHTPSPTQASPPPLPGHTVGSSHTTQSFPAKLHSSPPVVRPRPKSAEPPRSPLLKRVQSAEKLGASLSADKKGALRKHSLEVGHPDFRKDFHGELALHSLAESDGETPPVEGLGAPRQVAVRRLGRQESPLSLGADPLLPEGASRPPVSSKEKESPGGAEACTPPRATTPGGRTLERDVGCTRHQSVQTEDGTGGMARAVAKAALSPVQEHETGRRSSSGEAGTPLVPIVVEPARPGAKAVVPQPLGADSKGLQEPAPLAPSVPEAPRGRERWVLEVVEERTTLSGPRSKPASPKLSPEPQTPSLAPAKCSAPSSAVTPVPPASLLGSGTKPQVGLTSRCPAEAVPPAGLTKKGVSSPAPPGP

Cn1cc(Cl)c2c(Oc3c(F)cc(Nc4cc(Cl)nc(N)n4)cc3F)ccnc21 [BAY-4900]
inactive: residual activity [1] 100% | residual activity [2] 100% | residual activity [3] 100% | residual activity [4] 100% | residual activity [5] 91% | residual activity [6] 100% | residual activity [7] 100% | residual activity [8] 100% | residual activity [9] 100% | residual activity [10] 100% | residual activity [11] 100% | residual activity [12] 94% | residual activity [13] 80% | residual activity [14] 84% | residual activity [15] 90% | residual activity [16] 100% | residual activity [17] 90% | residual activity [18] 99% | residual activity [19] 100% | residual activity [20] 100% | residual activity [21] 68% | residual activity [22] 100% | residual activity [23] 92% | residual activity [24] 72% | residual activity [25] 88% | inhibition [26] 2.72%

Cc1c[nH]c2nccc(Oc3c(F)cc(Nc4cc(Cl)nc(N)n4)cc3F)c12 [BAY-549]
inactive: residual activity [1] 100% | residual activity [2] 98% | residual activity [3] 94% | residual activity [4] 100% | residual activity [5] 91% | residual activity [6] 98% | residual activity [7] 100% | residual activity [8] 92% | residual activity [9] 100% | residual activity [10] 100% | residual activity [11] 79% | residual activity [12] 92% | residual activity [13] 81% | residual activity [14] 94% | residual activity [15] 99% | residual activity [16] 100% | residual activity [17] 100% | residual activity [18] 98% | residual activity [19] 97% | residual activity [20] 99% | residual activity [21] 72% | residual activity [22] 100% | residual activity [23] 100% | residual activity [24] 95% | residual activity [25] 96% | inhibition [26] 22.1%

— ChEMBL document CHEMBL4507274 (2021)
